Measurements taken from patent publication US20070243577A1, “Method for the detection of apoptosis by determining apoptosis-specific markers released into an extracellular medium through cellular release mechanisms” (Evotec OAI AG, priority 2000, published 2007).

Assays:
[1] = system: Jurkat cells; assay: Extracellular release of cytochrome c into cell culture medium (immunoprecipitation and immunoblot); assay type: cell-based, human; conditions: for cytochrome c in the cell culture medium: 16 h, anti-CD95 mAb 1 μg/ml, etoposide 25 μg/ml, doxorubicin 2 μg/ml
Method: 5×10^6 Jurkat cells were cultured in growth medium and either left untreated (control) or stimulated for 16 h with staurosporine (stauro, 2.5 μM), anti-CD95 mAb (α-CD95, 1 μg/ml), etoposide (etopo, 25 μg/ml) or doxorubicin (doxo, 2 μg/ml). Cytochrome c was precipitated from the cell culture medium (m) and the cellular extracts (c) with antibodies against the native molecule. The immunoprecipitated material was separated by SDS-PAGE and analysed by immunoblotting.
5×10^6 Jurkat cells were cultured in growth medium and stimulated for 15 h with the indicated concentrations of anti-CD95 mAb and staurosporine or for 24 h with the indicated concentrations of etoposide or doxorubicin. Cytochrome c was precipitated from the culture medium (m) and the cellular extracts (c) with antibodies against the native molecule. The immunoprecipitated material was separated by SDS-PAGE and analysed by immunoblotting. The quantity of cytochrome c was determined by densitometric analysis. The graphs display the amount of cytochrome c in the culture medium relative to the total amount of cytochrome c present in medium and cells.
1×10^6 Jurkat cells were incubated with medium or staurosporine (stauro, 2.5 μM) and harvested after is the indicated time points (+). A cell culture sample prior to applying staurosporine and a cell culture sample after 15 h without the addition of staurosporine are shown for intercomparison (−). Release of cytochrome c was determined by immunoprecipitation of the medium fractions and subsequent immunoblotting. […] The amounts of cytochrome c in the supernatants indicate the absolute densitometric values.
The human Jurkat T-cell line and mouse L929 fibroblasts were grown at 37° C., 5% CO2, in RPMI-1640 medium supplemented with 10% heat-inactivated fetal calf serum, penicillin and streptomycin (all from GIBCO BRL). Etoposide, actinomycin D and doxorubicin were purchased from Sigma and staurosporine from Roche Diagnostics. All stimuli were dissolved in ethanol and kept at −70° C.

[2] = system: Jurkat cells; assay: Measurement of cell death by flow cytometry (hypodiploid nuclei, PI uptake); assay type: cell-based, human
Method: The percentage of apoptotic hypodiploid cells is shown on the right of the histograms. […] 1×10^6 Jurkat cells were incubated with medium or staurosporine (stauro, 2.5 μM) and harvested after the indicated time points.
Also shown is the detection of cell death by PI (propidium iodide) uptake and of apoptosis by detecting hypodiploid nuclei, both by flow cytometry. The percentage of dead cells or apoptotic hypodiploid cells is shown on the right of the histograms. 1×10^6 cells were cultured in normal growth medium (control), or in the presence of staurbsporine (stauro, 2.5 μM) or the indicated concentrations of H2O2 for 18 h. […] As also shown, cell death was detected by PI (propidium iodide) uptake and apoptosis by detecting hypodiploid nuclei, both by flow cytometry.

[3] = system: Jurkat cells; assay: LDH activity in the supernatant; assay type: cell-based, human; conditions: staurosporine 2.5 μM, 15 hours
Method: 1×10^6 Jurkat cells were incubated with medium or staurosporine (stauro, 2.5 μM) and harvested after is the indicated time points (+). A cell culture sample prior to applying staurosporine and a cell culture sample after 15 h without the addition of staurosporine are shown for intercomparison (−). Release of cytochrome c was determined by immunoprecipitation of the medium fractions and subsequent immunoblotting. Heavy; and light chain of anti-cytochrome c antibody and cytochrome c are indicated by open and closed arrowheads, respectively. The LDH activity in the supernatant of apoptotic cells represents the percentage of total LDH activity in the sample. The amounts of cytochrome c in the supernatants indicate the absolute densitometric values. The release of cytochrome c from the cell is a rapid process. Already one hour after apoptosis induction with staurosporine cytochrome c could be detected in the extracellular medium. […] Only about 20% of the total LDH were detected in the supernatants of apoptotic cells after 15 hours of staurosporine treatment.
Cell viability was also determined by monitoring the release of the cytoplasmic enzyme lactate dehydrogenase (LDH), an indicator for cell death. In order to obtain total LDH activity, cells were lysed with 1% Triton X-100. […]

[4] = system: L929 cells; assay: Measurement of cell death by flow cytometry (hypodiploid nuclei, PI uptake); assay type: cell-based, mouse; conditions: TNF-α 10 ng/ml plus actinomycin D 1 μg/ml in presence of zVAD-fmk 100 μM, 8 h
Method: Also shown is the detection of cell death by PI (propidium iodide) uptake and of apoptosis by detecting hypodiploid nuclei, both by flow cytometry. The percentage of dead cells or apoptotic hypodiploid cells is shown on the right of the histograms. 3×10^6 L929 cells were incubated with medium or with TNF-α (10 ng/ml) plus actinomycin D (Act. D, 1 μg/ml) in the absence or presence of the caspase inhibitor zVAD-fmk (benzyloxycarbonyl-Val-Ala-Asp-fluoromethylketone, zVAD, 100 μM) for 8 h. The release of cytochrome c was determined by immunoprecipitation of culture medium (m) and for intercomparison of corresponding cellular extracts (c) and subsequent immunoblotting. […] As also shown, cell death was detected by PI (propidium iodide) uptake and apoptosis by detecting hypodiploid nuclei, both by flow cytometry. […]
For determination of apoptosis, Jurkat and L929 cells were seeded in microtiter plates and treated with the cytotoxic agents for the indicated time periods. […] Briefly, apoptotic nuclei were prepared by lysing cells in a hypotonic lysis buffer (1% sodium citrate, 0.1% Triton X-100, 50 μg/ml propidium iodide) and subsequently analysed by flow cytometry. In parallel, cell death as assessed by membrane damage was determined by the uptake of propidium iodide (PI, 2 μg/ml in PBS; Sigma) into non-fixed cells. […]

[5] = system: L929 cells; assay: Extracellular release of cytochrome c into cell culture medium (immunoprecipitation and immunoblot); assay type: cell-based, mouse; conditions: TNF-α 10 ng/ml plus actinomycin D 1 μg/ml in presence of zVAD-fmk 100 μM, 8 h
Method: 3×10^6 L929 cells were incubated with medium or with TNF-α (10 ng/ml) plus actinomycin D (Act. D, 1 μg/ml) in the absence or presence of the caspase inhibitor zVAD-fmk (benzyloxycarbonyl-Val-Ala-Asp-fluoromethylketone, zVAD, 100 μM) for 8 h. The release of cytochrome c was determined by immunoprecipitation of culture medium (m) and for intercomparison of corresponding cellular extracts (c) and subsequent immunoblotting. Heavy and light chain of the anti-cytochrome c antibody and cytochrome c are indicated by open and closed arrowheads, respectively.
The human Jurkat T-cell line and mouse L929 fibroblasts were grown at 37° C., 5% CO2, in RPMI-1640 medium supplemented with 10% heat-inactivated fetal calf serum, penicillin and streptomycin (all from GIBCO BRL). […] The broad-range caspase inhibitor benzyloxycarbonyl-Val-Ala-Asp-fluoromethylketone (zVAD-fmk) was purchased from Enzyme Systems (Dublin, Calif.); all other chemicals were from Merck KG or Roth GmbH.
To determine the cellular cytochrome c content, cells were collected by centrifugation, washed in cold PBS and extracted in cold lysis buffer (50 mM Tris, pH 7.4, 150 mM NaCl, 1% Triton-X100 containing 3 μg/ml aprotinin, 3 μg/ml leupeptin, 3 μg/ml pepstatin and 2 mM PMSF). […] The amount of immunoprecipitated cytochrome c was determined by densitometric analysis using the NIH image software (National Institutes of Health).

[6] = Jurkat cells, staurosporine 2.5 μM
[7] = Jurkat T-cells, 100 μM and 250 μM, 18 h

COc1cccc2c1C(=O)c1c(O)c3c(c(O)c1C2=O)C[C@@](O)(C(=O)CO)C[C@@H]3O[C@H]1C[C@H](N)[C@H](O)[C@H](C)O1 [doxorubicin]
cytochrome c in the cell culture medium [1, 6]: large amounts of cytochrome c

COc1cc([C@@H]2c3cc4c(cc3[C@@H](O[C@@H]3O[C@@H]5CO[C@@H](C)O[C@H]5[C@H](O)[C@H]3O)[C@H]3COC(=O)[C@H]23)OCO4)cc(OC)c1O [etoposide]
cytochrome c in the cell culture medium [1, 6]: large amounts of cytochrome c

OO [hydrogen peroxide]
cytochrome c release into the extracellular cell culture medium [1, 7]: no cytochrome c release | mode of cell death (PI uptake, hypodiploid nuclei) [2, 7]: induced necrotic death

CN[C@@H]1C[C@H]2O[C@@](C)([C@@H]1OC)n1c3ccccc3c3c4c(c5c6ccccc6n2c5c31)C(=O)NC4 [staurosporine]
LDH detected in the supernatants, percentage of total LDH [3]: about 20% | cytochrome c in the cell culture medium [1, 6]: large amounts of cytochrome c | time at which cytochrome c could be detected in the extracellular medium [1, 6]: one hour | time until formation of hypodiploid nuclei after triggering apoptosis [2, 6]: ≥ 5 h

benzyloxycarbonyl-Val-Ala-Asp-fluoromethylketone [zVAD-fmk]
mode of cell death (hypodiploid nuclei, PI uptake) [4]: resulted in necrosis | extracellular cytochrome c release [5]: not during necrotic cell death
